We go through one molecule from patent US9487508B2, “SGC stimulators” (IRONWOOD PHARMACEUTICALS, INC., priority 2012, dated 2016).

The assay deals with T1, soluble guanylate cyclase (sGC) (Homo sapiens, UniProt Q02108+Q02153).
T1 construct: endogenously expressing soluble guanylate cyclase (sGC); endogenous in cells; host or cells: HEK293
T1 sequence (Q02153 1-619): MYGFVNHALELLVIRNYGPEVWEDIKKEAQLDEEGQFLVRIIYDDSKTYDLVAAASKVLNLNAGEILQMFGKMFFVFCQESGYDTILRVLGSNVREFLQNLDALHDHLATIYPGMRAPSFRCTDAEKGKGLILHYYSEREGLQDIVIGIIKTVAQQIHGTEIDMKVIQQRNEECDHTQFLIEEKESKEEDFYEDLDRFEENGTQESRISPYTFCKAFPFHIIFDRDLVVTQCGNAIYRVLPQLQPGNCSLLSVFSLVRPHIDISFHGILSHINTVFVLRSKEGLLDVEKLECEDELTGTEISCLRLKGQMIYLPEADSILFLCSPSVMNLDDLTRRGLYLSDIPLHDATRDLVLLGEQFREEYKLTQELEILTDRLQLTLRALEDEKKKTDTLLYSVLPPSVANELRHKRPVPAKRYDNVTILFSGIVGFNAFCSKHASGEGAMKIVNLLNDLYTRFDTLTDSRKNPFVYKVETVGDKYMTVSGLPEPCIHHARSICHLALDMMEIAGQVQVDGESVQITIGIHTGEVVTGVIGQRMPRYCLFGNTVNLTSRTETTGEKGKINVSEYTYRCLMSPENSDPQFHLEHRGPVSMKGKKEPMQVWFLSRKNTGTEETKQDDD
T1 sequence (Q02108 1-690): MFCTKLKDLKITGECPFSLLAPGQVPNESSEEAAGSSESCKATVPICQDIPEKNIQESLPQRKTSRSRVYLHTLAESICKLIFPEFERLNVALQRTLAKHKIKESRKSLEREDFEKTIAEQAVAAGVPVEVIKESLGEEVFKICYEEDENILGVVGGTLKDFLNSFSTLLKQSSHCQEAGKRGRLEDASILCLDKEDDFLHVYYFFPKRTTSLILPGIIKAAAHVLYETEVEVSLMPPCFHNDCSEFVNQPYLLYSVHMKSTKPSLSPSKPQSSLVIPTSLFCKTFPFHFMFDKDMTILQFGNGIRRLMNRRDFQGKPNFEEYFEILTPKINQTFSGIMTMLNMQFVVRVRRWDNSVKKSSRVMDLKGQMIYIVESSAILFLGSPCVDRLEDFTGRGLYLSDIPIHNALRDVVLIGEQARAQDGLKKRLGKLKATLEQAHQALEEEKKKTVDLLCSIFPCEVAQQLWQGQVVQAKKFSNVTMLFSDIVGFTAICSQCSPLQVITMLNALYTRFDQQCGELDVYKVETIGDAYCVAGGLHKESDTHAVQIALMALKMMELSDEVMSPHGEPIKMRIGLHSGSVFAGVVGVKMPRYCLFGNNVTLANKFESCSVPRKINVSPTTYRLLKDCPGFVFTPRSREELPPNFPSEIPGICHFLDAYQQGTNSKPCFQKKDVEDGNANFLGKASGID
The assay is described as follows: sGC-HEK-cGMP assay with SNP incubation (LC/MS read-out). Type of assay: cell-based. The conditions noted are these: 10 μM SNP. How it is done: (Assay Run with SNP Incubation)
Human embryonic kidney cells (HEK293), endogenously expressing soluble guanylate cyclase (sGC), were used to evaluate the activity of test compounds. Compounds stimulating the sGC receptor should cause an increase in the intracellular concentration of cGMP. HEK 293 cells were seeded in Dulbecco's Modification of Eagle's Medium supplemented with fetal bovine serum (10% final) and L-glutamine (2 mM final) in a 200 μL volume at a density of 1×10^5 cells/well in a poly-D-lysine coated 96 well flat bottom plate and grown overnight at 37° C. Medium was aspirated and cells were washed with 1× Hank's Buffered Saline Salt Solution (200 μL). Cells were then incubated for 15 minutes at 37° C. with 200 μL of a 0.5 mM 3-isobutyl-1-methylxanthine (IBMX) solution. Test article and sodium nitroprusside solutions (x μM concentration for test article solution and 10 μM concentration for SNP solution; wherein x is one of the following concentrations);
were then added to the assay mixture (2 μL each) and the resulting mixture incubated at 37° C. for 10 minutes. After the 10 minute incubation, the assay mixture was aspirated and 0.1M HCl (200 μL) was added to the cells. The plate was incubated at 4° C. for 30 minutes in the 0.1M HCl to stop the reaction and lyse the cells. The plates were then centrifuged at 1,200 g for 5 minutes at room temperature. Supernatants were collected and transferred to a new flat bottom 96 well plate for analysis by HPLC-MS. Vehicle controls were carried out using DMSO (1%) solutions. A known sGC stimulator, BAY 41-2272, was used as the positive control. Samples were diluted with an equal volume of 1 M Ammonium Acetate (pH 7) to neutralize samples for better chromatography. A 2×cGMP standard solution was prepared in 0.1 M HCl and then diluted with an equal volume of 1 M Ammonium Acetate, with the following final concentrations in nM: 1024, 512, 256, 128, 64, 32, 16, 8, 4, 2, 1. cGMP concentrations in the test plates were determined from each sample using the LC/MS conditions shown in Table 2 below and the calculated cGMP standard curve. EC50 values were calculated from concentration-response curves generated with GraphPad Prism Software.
The biological activities of some of the compounds of Formula I or Formula Ib determined with the sGC-HEK assay with SNP incubation are summarized in Tables 3A and 3B.

pEC50: −log10 of the molar value.

Turning to `Nc1ccnc(-n2cc(-c3ncco3)c(Cc3ccccc3F)n2)n1` [Compound I-2], where the note is “10 μM compound, 100% = BAY 41-2272 at 10 μM with 100 μM SNP, read-out: HEK assay (Percent Emax at 10 μM)”, the Emax at 10 µM fell in the range of 80 to 100%. For the same molecule, the Emax at 30 µM (30 μM compound, 100% = BAY 41-2272 at 10 μM with 100 μM SNP, read-out: HEK assay (Percent Emax at 30 μM)) is 80 to 100%. The pEC50 (top of curve fitted to 100%, read-out: HEK assay EC50-constrained) is 5.30 to 6.00.

Broadly, the Emax is the size of the effect at its maximum, as opposed to the concentration needed. For orientation: pEC50 means −log10 of the EC50, conventionally taken in molar units.
